In patent US10376520B2, “Methods for the treatment of cardiovascular disorders” (Galapagos NV, priority 2015, dated 2019):

Test system: Japanese and Caucasian healthy subjects
Assay: LDL determination, Study 3 (healthy volunteers)
Format: in vivo, human
Details: for [LDL] % Mean % variation vs baseline 10 days: 200 mg q.d.; for [LDL] levels: Study 3
Protocol: Randomized, double-blind, placebo-controlled study for the assessment of safety, tolerability, pharmacokinetics, and pharmacodynamics, of multiple oral doses of Compound 1 (dosed as a [Compound 1:HCl:3H2O]) in Japanese and Caucasian healthy subjects.
Randomized, double-blind, placebo-controlled, single center, sequential design study.
Compound 1 (dosed as a [Compound 1:HCl:3H2O]) is administered for 10 days as oral film-coated tablet (25 and 100 mg and matching placebos). Placebo are provided as a matching tablet.
The study drug is ingested with 240 mL water after a standardized breakfast on Days 2-9. On PK days (Day 1 and Day 10) the study drug is administered in a fasted state (subjects will receive lunch 4 h after dosing on Day 1 and Day 10).
10 Japanese subjects (6 active, 4 placebo) and 10 Caucasian subjects (6 active, 4 placebo) will receive once daily an oral dose of 200 mg Compound 1 (dosed as a [Compound 1:HCl:3H2O]) or matching placebo as two tablets of 100 mg or matching placebo for 10 days. For practical reasons, these subjects may be split over separate groups, each group consisting of an equal number of Japanese and Caucasian Compound 1 (dosed as a [Compound 1:HCl:3H2O]) treated subjects and Japanese and Caucasian placebo subjects.
The determination of [LDL]-cholesterol is made using an automated method taking advantage of the selective micellary solubilization of [LDL]-cholesterol by a nonionic detergent and the interaction of a sugar compound and lipoproteins (VLDL and chylomicrons).
When a detergent is included in the enzymatic method for cholesterol determination (cholesterol esterase, cholesterol oxidase coupling reaction), the relative reactivities of cholesterol in the lipoprotein fractions increase in this order: [HDL]<chylomicrons <VLDL <[LDL]. In the presence of Mg^2+, a sugar compound markedly reduces the enzymatic reaction of the cholesterol measurement in VLDL and chylomicrons. The combination of a sugar compound with detergent enables the selective determination of [LDL]-cholesterol in serum. (Friedewald et al., 1972; Rifai et al., 1992)
Homogeneous enzymatic colorimetric assay.
In the presence of peroxidase, the hydrogen peroxide generated reacts with 4-aminoantipyrine and Sodium N-(2-hydroxy-3-sulfopropyl)-3,5-dimethoxyaniline (HSDA) to form a purple-blue dye.
The color intensity of this dye is directly proportional to the cholesterol concentration and is measured photometrically.
Human serum and plasma samples [LDL] determination was done on a Roche/Hitachi Cobas c 701/702 system which automatically calculate the analyte concentration of each sample. Samples containing precipitates are centrifuged before performing the assay.

O=C(Nc1nc2cccc(-c3ccc(CN4CCS(=O)(=O)CC4)cc3)n2n1)C1CC1 [Compound 1, cyclopropanecarboxylic acid {5-[4-(1,1-dioxo-thiomorpholin-4-ylmethyl)-phenyl]-[1,2,4]triazolo[1,5-a]pyridin-2yl}-amide]
[LDL] % Mean % variation vs baseline 10 days (Caucasian): −1.3% | [LDL] % Mean % variation vs baseline 10 days (Japanese): −8.9% | [LDL] levels (Caucasian 200 mg q.d. for 10 days, day 17): 2.5 mmol/L | [LDL] levels (Caucasian 200 mg q.d., day 0): 2.6 mmol/L | [LDL] levels (Caucasian 200 mg q.d., day 5): 2.6 mmol/L | [LDL] levels (Caucasian 200 mg q.d., day 10): 2.4 mmol/L | [LDL] levels (Japanese 200 mg q.d. for 10 days, day 17): 2.7 mmol/L | [LDL] levels (Japanese 200 mg q.d., day 0): 2.7 mmol/L | [LDL] levels (Japanese 200 mg q.d., day 5): 2.5 mmol/L | [LDL] levels (Japanese 200 mg q.d., day 10): 2.5 mmol/L
